Measurements taken from patent US9808434B2, “Compound for treating cancer and diabetes” (CITY OF HOPE, priority 2011, dated 2017).

How the values were obtained:
PBT-017 = test: Glioma ATP viability assay, PBT-017; format: cell-based; conditions: 72 h, Table 2
Method: (§1) Cells of each cell line (U251, U87, PBT-017, PBT018, PBT003 and PBT028) were treated with various concentrations (0˜100 μM) of COH-SR4 for 72 hours. Cell viabilities were determined by ATP viability assays. Data were represented as a ratio to vehicle (DMSO) control, and plotted as mean±SEM (n=12) obtained from 2˜3 experiments (FIG. 34A).
as §1, with “(U87, U251,” for “(U251, U87, PBT-017, PBT018,”, “PVT-017)” for “PBT028)”, “2-3” for “2˜3”, “34B).” for “34A).”
(§2) Cells of each cell line were treated with various concentrations (0˜100 μM) of COH-SR4 or various concentrations (0˜1000 μM) of TMZ for 72 hours. Cell viabilities were determined by ATP viability assays. Data were represented as a ratio to untreated cells as control, and plotted as mean±SEM (n=12) obtained from 2˜3 experiments (FIGS. 43A-B).

U251 = test: Glioma ATP viability assay, U251; format: cell-based; conditions: Homo sapiens, U-251, 72 h, Table 2
Method: as §1
as §1, with “(U87, U251,” for “(U251, U87, PBT-017, PBT018,”, “PVT-017)” for “PBT028)”, “2-3” for “2˜3”, “34B).” for “34A).”
as §2

[1] = tested on: HepG2 liver carcinoma cells; test: Intracellular AMP:ATP ratio in HepG2; format: cell-based, human; conditions: 5 μM, 1 h
Method: ATP production from cells treated with test compounds were measured using the Luminescent ATP Detection Assay Kit. AMP, ATP and ADP were measured by UV-HPLC.
Total intracellular ATP production in cells treated with either 5 μM COH-SR4 or 5 μM FCCP was measured by bioluminescence assay and expressed as percentage of time-matched vehicle (DMSO) control (FIG. 84A). Intracellular AMP: ATP ratios increased in HepG2 liver carcinoma cells following 1 h treatment with either 5 μM COH-SR4 or 5 μM FCCP (FIG. 84B) and in liver of db/db mice treated with COH-SR4 (5 mg/kg B.W.) for 5 weeks (FIG. 84C). All data represented are mean±SEM, *P<0.05.

[2] = tested on: human melanoma cells (SK-MEL28, A2058, A101D); test: Oxygen consumption rate in melanoma cells, Seahorse; format: cell-based; conditions: 1-10 μM, monitored 2 h
Method: (§3) Oxygen consumption rate (OCR), a measure of OxPhos, and extracellular acidification rate (ECAR), a measure of lactate production by glycolysis, were measured using a Seahorse Xf^e96 Flux Analyzers (Seahorse Biosciences, North Billerica, Mass.). Cells were seeded in DMEM media in Seahorse 96-well tissue culture plates at a density of 5×10^3 cells/well and allowed to adhere for 24 h. Prior to the assay, the media was changed to unbuffered DMEM containing 25 mM glucose, 1 mM pyruvate and 1 mM glutamine, with 0.2% fatty acid/endotoxin-free BSA (w/v) (pH 7.4) and the cells were equilibrated for 30 min at 37° C. Test compounds were injected during the assay and OCR and ECAR were measured using 2-3 min measurement periods. […] OCR was measured throughout the different injections of the stressors and test compounds (indicated by arrows in the figures).
The importance of mitochondria as oxygen sensors as well as producers of ATP and ROS has recently become a focal point of cancer research. […] OCR was continuously monitored for 2 h. Mitochondria recoupler 6-KCH (200 μM) was added to the assay system prior to injection of COH-SR4 (5 μM) as shown by arrows and OCR of A101D cells were monitored (FIG. 37B). […]

A2058 cells = test: Mitochondrial membrane depolarization, TMRE; format: cell-based, human; conditions: 5 μM
Method: Cells (4×10^5/well in 6-well plates) cultured overnight were pre-incubated with the fluorescent indicator of MMP tetramethylrhodamine ester (TMRE, 200 nM) or DMSO control for 30 min at 37° C. in CO2 incubator. Cells were washed with pre-warmed normal DMEM media, and test compounds were added with fresh media for the indicated times. Cells were then trypsinized, collected, centrifuged for 5 min at 800×g, and washed once in pre-warmed PBS-0.2% BSA. Cells were then resuspended in the same buffer prior to flow cytometric analysis. A total of 30,000 cells were counted per sample and data was analyzed by Cyan ADP flow cytometer with excitation/emission of 488 nm/572 nm (Beckman Coulter, Inc., Brea, Calif.). For measurements of membrane potential in isolated mouse liver mitochondria, the organelles were pre-incubated with 200 nM TMRE in MASSRO buffer (MAS buffer supplemented with 10 mM succinate, 1 μM rotenone, and 1 μM oligomycin) for 20 min at 25° C. The mitochondria were centrifuged for 5 min at 3000×g and resuspended in MASSRO buffer. Mitochondria were then added to MASSRO buffer containing the indicated concentrations of COH-SR4, FCCP or DMSO vehicle control and incubated at room temperature for 15 min. […] TMRE fluorescence was measured with a microplate reader (Tecan Infinite M200 Pro, Tecan Group Ltd., Switzerland) using an excitation emission of 545ex/580em. […]

[3] = tested on: isolated mouse liver mitochondria; test: Mitochondrial swelling assay; conditions: potassium acetate buffer with valinomycin
Method: Mitochondrial swelling was measured in non-respiring mouse liver mitochondria incubated in buffered isotonic potassium acetate in the presence of valinomycin (24,25). […] Absorbance of the mitochondrial suspension before and after addition test compounds was measured every 10 seconds using a Varian Cary 300 spectrophotometer (Agilent Technologies, Santa Clara, Calif.). Swelling was recorded from the decrease in absorbance at 600 nm and expressed as percentage from initial reading after addition of mitochondria.
Mitochondrial membrane swelling was detected as decrease in absorbance at 600 nm following the addition of COH-SR4 or FCCP alone or in the presence of cysclosporin A (CSA, 1 μM) on isolated mouse liver mitochondria respiring on succinate (10 mM) in the presence of rotenone (1 μM) and valinomycin (5 μM) in potassium acetate buffer. […] Arrow indicates time of addition of test compounds into the mitochondria suspension.

[4] = tested on: isolated mouse liver mitochondria; test: Oxygen consumption rate in isolated liver mitochondria; conditions: increasing concentrations
Method: Mitochondria were isolated from the livers of 10 week old male C57BL/6 mice. Mice were euthanized by CO2 inhalation followed by cervical dislocation. Livers were removed, minced with scissors, and immediately placed in ˜10 volumes of ice-cold mitochondria isolation medium (250 mM sucrose, 10 mM Tris-HCl, 1 mM EGTA, 1% fatty acid/endotoxin-free BSA, pH 7.4). The presence of BSA in the medium allowed the endogenous free fatty acids to be chelated from the homogenate suspension. The tissues were homogenized using 25-30 strokes in Potter-Elvehjem tissue grinder. Following centrifugation at 800×g for 10 min at 4° C., the fats/lipids were carefully aspirated, and the remaining supernatant was filtered through sterile 0.40 micron nylon mesh membrane and centrifuged at 8,000×g for 10 min at 4° C. […] The mitochondrial protein concentration was determined by the DC Protein Assay kit (Bio-Rad, Hercules, Calif.) with BSA as a standard. […]
Isolated mouse liver mitochondria (2 μg/well or 5 μg/well) were seeded on Seahorse 96-well plate, and respiration (OCR) was measured on mitochondria respiring either on pyruvate (10 mM) and malate (2 mM) or succinate (10 mM) and rotenone (2 μM) using a Seahorse 96 Flux Analyzers according to Rogers et al (90).

A2058 p^0 cells = test: Oxygen consumption rate in mitochondrial DNA-depleted cells; format: cell-based, human; conditions: compared with wild-type A2058; data not shown
Method: as §3, with “periods. Similar sets of experiments were performed in the presence of the mitochondria recoupler agent 6-KCH or the mitochondrial permeability transition (MPT) pore blocker CSA, where each compound was injected into the assay media prior to COH-SR4 or FCCP injection.” for “periods.”
To verify that COH-SR4 acts directly on mitochondrial respiration, OCR in mitochondrial DNA-depleted (p^0) A2058 cells was measured, as well as freshly isolated mouse liver mitochondria and treated with either COH-SR4 or FCCP.

melanoma cells [5] = test: Colony formation assay, melanoma cells (elesclomol); format: cell-based, human; conditions: 5 μM, compared to COH-SR4
Method: Cell survival was evaluated using a standard colony-forming assay. In total, 1×10^5 cells/mL were incubated with COH-SR4 (1.5 μM or 5 μM) or elesclomol (5 μM) for 24 h, and aliquots of 50 or 100 μL were added to 60 mm size petri dishes, containing 4 mL culture medium. After 7 or 10 days, adherent colonies were fixed, stained with 0.5% methylene blue for 30 min and colonies were counted using the Innotech Alpha Imager HP (91).

melanoma cells [6] = test: MTT assay, melanoma cell lines of various mutational status; format: cell-based; conditions: 48 h, regardless of mutational status; read-out: IC50 values across melanoma cell lines
Method: Cell density measurements were performed using a hemocytometer to count reproductive cells resistant to staining with trypan blue. Approximately 20,000 cells were plated into each well of 96-well flat-bottomed micro-titer plates. After 12 h or 24 h incubation at 37° C., medium containing either COH-SR4 (ranging 0-200 μM) or elesclomol (ranging 0-20 μM) were added to the cells. After 24 h, 48 h or 96 h incubation, 20 μL of 5 mg/mL MTT were introduced to each well and incubated for 2 h. The plates were centrifuged and medium was decanted. Cells were subsequently dissolved in 100 μl DMSO with gentle shaking for 2 h at room temperature, followed by measurement of OD570 (91).

[7] = tested on: B16-F0 and A2058 melanoma cells; test: TUNEL apoptosis assay, melanoma; format: cell-based; conditions: 5 μM, 24 h
Method: For TUNEL assay, 1×10^5 cells were grown on the cover slips for ˜12 h followed by treatment with COH-SR4 (5 μM or 10 μM) or elesclomol (5 μM) for 24 h. Apoptosis was determined by the labeling of DNA fragments with terminal deoxynucleotidyl-transferase dUTP nick-end labeling (TUNEL) assay using Promega fluorescence apoptosis detection system, and examined using Zeiss LSM 510 META laser scanning fluorescence microscope with filters 520 and 620 nm according to the protocol described previously (91). Photographs taken at identical exposure at ×400 magnification are presented.

GSTP = target: T1, GSTP (Homo sapiens, UniProt P09211); test: GSTP activity towards CDNB in the presence of GSR4; format: biochemical; conditions: 93977 at 0 μM
T1 construct: made in house; host or cells: E. coli BL21 (DE3)
T1 sequence (P09211 whole entry): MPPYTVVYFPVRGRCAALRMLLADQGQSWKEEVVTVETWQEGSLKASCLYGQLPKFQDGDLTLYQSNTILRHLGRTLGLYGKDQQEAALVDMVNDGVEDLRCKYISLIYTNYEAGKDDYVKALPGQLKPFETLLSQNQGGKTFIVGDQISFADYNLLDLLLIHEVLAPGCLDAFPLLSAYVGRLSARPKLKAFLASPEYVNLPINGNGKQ
Method: Furthermore, GSTP activities towards CDNB were assessed in the presence of various concentration of GSR4. The GSTP activities decreased when the concentration of GSR4 increased (Table 3). Thus, […] was a product inhibitor of GSTP with an estimated Ki of less than 5 μM.

Cn1nnc2c(C(N)=O)ncn2c1=O [TMZ, temozolomide, reference compound]
IC50 (PBT-017): 13 µM
IC50 (U251): 371 µM

N#CC(C#N)=NNc1ccc(OC(F)(F)F)cc1 [FCCP, reference compound]
intracellular AMP:ATP ratios [1]: increased
oxygen consumption rate (OCR) [2]: caused an abrupt increase in OCR at the lower concentration and decreases OCR at higher (>3 μM) concentrations
mitochondrial membrane depolarization (TMRE fluorescence) (A2058 cells): induced mitochondrial membrane depolarization in a time-dependent manner
mitochondrial swelling (absorbance at 600 nm) [3]: mitochondrial swelling was observed
OCR of mitochondria respiring on pyruvate and malate or succinate-rotenone [4]: dose-dependently increased OCR of mitochondria
OCR in mitochondrial DNA-depleted cells (A2058 p^0 cells): failed to increase OCR

CN(NC(=O)CC(=O)NN(C)C(=S)c1ccccc1)C(=S)c1ccccc1 [elesclomol, reference compound]
colony forming ability of melanoma cells (melanoma cells [5]): did not significantly affect the colony forming ability
IC50 (melanoma cells [6]): ≥ 5.8 µM
apoptosis (DNA fragmentation, TUNEL) [7]: not potent

mono-glutationyl-SR4 [GSR4]
GSTP activity towards CDNB (Kcat [s−1]) (GSTP; [GSR4] 5 μM): 36385 s⁻¹
GSTP activity towards CDNB (Kcat [s−1]) (GSTP; [GSR4] 10 μM): 16115 s⁻¹
